The test system of test [1] is ApoE expression in human melanoma cells. As to the kind of experiment: ApoE mRNA expression by qRT-PCR in melanoma cells. In kind it is cell-based. The protocol:
Total RNA was extracted from various cell lines using the miRvana kit (AM1560, Applied Biosystems, Austin, Tex.). The expression levels of mature miRNAs were quantified using the Taqman miRNA expression assay (4427975-0002228, Applied Biosystems). RNU44 was used as an endogenous control for normalization. For mRNA expression analyses, 600 ng of total RNA was reverse transcribed using the cDNA First-Strand Synthesis Kit (18080-051, Invitrogen), and roughly 200 ng of the resulting cDNA was then mixed with SYBR green PCR Master Mix (4309155, Applied Biosystems) and the appropriate primers. Each reaction was performed in quadruplicate, and mRNA expression was quantified by performing real-time PCR amplification using an ABI Prism 7900HT Real-Time PCR System (Applied Biosystems). GAPDH was used as an endogenous control for normalization. The following primers were used: […]
RNA was extracted from whole cell lysates using the Total RNA Purification Kit (17200, Norgen, Thorold, Canada). 600 ng of total RNA was then reverse transcribed into cDNA using the cDNA First-Strand Synthesis Kit (18080-051, Invitrogen), and quantitative real-time PCR amplification was performed as previously described (Pencheva et al., 2012) using an ABI Prism 7900HT Real-Time PCR System (Applied Biosystems, Austin, Tex.). Each PCR reaction was carried out in quadruplicates. Gene expression was normalized to GAPDH, which was used as an endogenous control.
For every sample, 600 ng of RNA was reverse transcribed into cDNA using the cDNA First-Strand Synthesis kit (Invitrogen). Approximately 200 ng of cDNA was mixed with SYBR® green PCR Master Mix and the corresponding forward and reverse primers specific for detection of human ApoE. Each reaction was carried out in quadruplicates, and ApoE mRNA expression levels were measured by quantitative real-time PCR amplification using an ABI Prism 7900HT Real-Time PCR System (Applied Biosystems). The relative ApoE expression was determined using the ΔΔCt method. GAPDH was used as an endogenous control for normalization purposes.
A general note: Quantitative PCR measures a nucleic acid by following its amplification.

Test [2] relates to human melanoma cells (MeWo, MeWo-LM2, HT-144, SK-Mel-2, SK-Mel-334.2). As to the kind of experiment: trans-well matrigel cell invasion assay, melanoma cells. It counts as cell-based. As to conditions: for ability of melanoma cells to invade through matrigel: MeWo, HT-144, SK-Mel-2, SK-Mel-334.2, 1 μM for 72 hours. The protocol:
Cancer cells were serum-starved in 0.2% FBS DMEM-based media for 12 hours. Trans-well invasion chambers (354480, BD Biosciences, Bedford, Mass.) were pre-equilibrated prior to beginning the assay by adding 0.5 mL of starvation media to the top and bottom chambers. After 30 minutes, the media in the top chamber was removed, and 0.5 mL of media containing 1×10^5 cancer cells was added into each matrigel-coated trans-well insert and incubated at 37° C. for 24 hours. For neutralization antibody and/or recombinant protein experiments, antibody/recombinant protein was added to each well at the start of the assay at the following concentrations as indicated in the figures: 5-40 μg/mL anti-ApoE 1D7 (Heart Institute, University of Ottawa), 5-40 μg/mL anti-IgG (AB-108-C, R&D Systems, Minneapolis, Minn.), 100 μM recombinant human ApoE3 (4696, BioVision, Mountain View, Calif.), and 100 μM BSA (A2153, Sigma-Aldrich). Upon completion of the assay, matrigel-coated inserts were washed with PBS, the cells at the top side of each insert were scraped off, and the inserts were fixed in 4% paraformaldehyde for 15 minutes. The inserts were then cut out and mounted onto slides using VectaShield mounting medium containing DAPI (H-1000, Vector Laboratories, Burlingame, Calif.). The basal side of each insert was imaged using an inverted fluorescence microscope (Zeiss Axiovert 40 CFL) at 5× magnification, taking three representative images for each insert. The number of invaded cells was quantified using ImageJ (NIH).
The cell invasion assay was performed as previously described in detail (Pencheva et al., 2012) using a trans-well matrigel invasion chamber system (354480, BD Biosciences). In brief, various melanoma cells were cultured in the presence of DMSO, GW3965, T0901317, or Bexarotene at 1 μM for 56 hours, after which melanoma cells were switched to starvation media (0.2% FBS) for 16 hours in the presence of each drug. Following starvation, cells were seeded into matrigel-coated trans-well inserts, and the invasion assay was allowed to proceed for 24 hours at 37° C. For ApoE antibody neutralization experiments, 40 μg/mL 1D7 anti-ApoE blocking antibody (Heart Institute, University of Ottawa, Ottawa, Canada) or 40 μg/mL anti-IgG control antibody (AB-108-C, R&D Systems, Minneapolis, Minn.) was added to each trans-well insert at the start of the assay.
The cells were then serum starved for 16 hours in 0.2% FBS media in the presence of each corresponding drug or DMSO. Following serum starvation, the cells were subjected to the trans-well invasion assay using a matrigel invasion chamber system (354480, BD Biosciences). Invasion chambers were pre-equilibrated prior to the assay by adding 0.5 mL of starvation media to the top and bottom wells. Meanwhile, cancer cells were trypsinized and viable cells were counted using trypan blue. Cancer cells were then resuspended at a concentration of 2×10^5 cells/1 mL starvation media, and 0.5 mL of cell suspension, containing 1×10^5 cells, was seeded into each trans-well. The invasion assay was allowed to proceed for 24 hours at 37° C. […] Following fixation, the inserts were washed in PBS, cut out, and mounted onto slides using VectaShield mounting medium containing DAPI nuclear stain (H-1000, Vector Laboratories). The basal side of each insert was imaged using an inverted fluorescence microscope (Zeiss Axiovert 40 CFL) at 5× magnification, and the number of DAPI-positive cells was quantified using ImageJ.

For the next test, the system named is melanoma cells. As to the kind of experiment: cell proliferation and viability assay. In kind it is cell-based, human. The conditions noted are these: for cell proliferation or cell viability rates: MeWo, HT-144, SK-Mel-334.2, 1 μM, 5 days. The protocol: To determine the effects of miR-199a or miR-1908 over-expression and combinatorial LNA-induced miRNA inhibition on cell proliferation, 2.5×10^4 cells were seeded in triplicate in 6-well plates, and viable cells were counted after 5 days. […] Viable cells were counted after 8, 24, 48, 72, and 120 hours.
After 5 days, the number of viable and dead cells was counted using the trypan blue dye (72-57-1, Sigma-Aldrich), which selectively labels dead cells.

Where a name gives a salt, the structure may show the parent alone.

With `O=C(O)Cc1cccc(OCCCN(Cc2cccc(C(F)(F)F)c2Cl)CC(c2ccccc2)c2ccccc2)c1` [GW3965 2, 3-[3-[N-(2-Chloro-3-trifluoromethylbenzyl)-(2,2-diphenylethyl)amino]propyloxy] phenylacetic acid hydrochloride], in test [1], the “potency of ApoE expression induction in vitro” value was “potently induce”. For the same molecule, the “expression of ApoE” value in test [1] (parental MeWo cells, 48 hours) is on record as “increased expression”. Moreover, the “ability of melanoma cells to invade through matrigel” value in test [2] is recorded as “consistently suppressed”. Also, the tumor cell invasion entry in test [2] (parental MeWo cells pre-treated for 48 hours) was “decreased”. Also, the “cell proliferation or cell viability rates” value in the test with melanoma cells is given as “did not affect”.

On to `O=S(=O)(c1ccccc1)N(CC(F)(F)F)c1ccc(C(O)(C(F)(F)F)C(F)(F)F)cc1` [T0901317 1], for which the “potency of ApoE expression induction in vitro” value in test [1] was “potently induce”. Moreover, the “ability of melanoma cells to invade through matrigel” value in test [2] is “consistently suppressed”. The “cell proliferation or cell viability rates” value in the test on melanoma cells is reported as “did not affect”.

“recombinant ApoE3: recombinant human ApoE3 (4696, BioVision)”: in test [2] (100 μM added to cell media), the “invasion by metastatic LM2 cells” value is reported as “significantly suppressed”. For the same molecule, the “melanoma cell or endothelial cell in vitro proliferation” value with melanoma cells (100 μM) is recorded as “did not affect”.

These data come from patent publication US10543183B2, “Treatment and diagnosis of melanoma” (The Rockefeller University, priority 2012, dated 2020).
